One experiment deals with LCK protein (Homo sapiens (Human), UniProt P06239). Description: LCK Inhibition Assay. In kind it is biochemical. Here is the method: Test compound was dissolved in DMSO at 10 mM. 45 uL of compound was transfer into a 384-well compound source plate (LABCYTE cat #P-05525) and serially diluted at 1:3 ratio to create a 11-point dilutions. The same volume of DMSO was adopted as high control. 20 nL of these compounds DMSO dilutes were dispensed into a new 384-well assay plate by Echo 550. LCK protein (0.50 nM, Cama Biosciences, cat #08-170), florescent labeled substrate FLPeptide4 (2 μM, PerkinElmer, cat #760348) was prepared in kinase assay buffer (50 mM HEPES (pH 7.5), 10 mM MgCl2, 0.01% Brij-35, 2 mM DTT and 0.005 mg/ml BSA). 15 uL of kinase assay buffer containing LCK protein and substrate was transferred to assay plate and incubate at RT for 30 minutes. Kinase assay buffer supplemented with substrate peptides was employed as low control to monitor the background. 400 μM ATP was prepared in kinase assay buffer and 5 μL of ATP solution was added to each well to start the reaction. The assay plate was incubated at 25° C. for 90 minutes and the reaction was stopped by adding 40 μL of 0.5 M EDTA.
Sequence of LCK protein (P06239 whole entry): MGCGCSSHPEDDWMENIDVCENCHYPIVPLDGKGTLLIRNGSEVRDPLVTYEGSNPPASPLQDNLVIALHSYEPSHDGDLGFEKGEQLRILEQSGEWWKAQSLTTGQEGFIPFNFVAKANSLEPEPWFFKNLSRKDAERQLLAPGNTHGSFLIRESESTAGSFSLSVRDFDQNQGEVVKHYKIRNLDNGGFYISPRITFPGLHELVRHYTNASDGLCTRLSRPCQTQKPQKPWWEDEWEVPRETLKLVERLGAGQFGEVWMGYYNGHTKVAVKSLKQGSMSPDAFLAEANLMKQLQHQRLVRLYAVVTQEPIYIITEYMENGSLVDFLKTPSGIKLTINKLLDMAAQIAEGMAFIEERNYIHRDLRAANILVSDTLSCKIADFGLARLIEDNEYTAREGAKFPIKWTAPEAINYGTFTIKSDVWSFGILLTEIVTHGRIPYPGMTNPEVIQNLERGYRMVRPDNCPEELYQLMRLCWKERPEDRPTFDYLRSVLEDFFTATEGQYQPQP
(§1) Phosphorylated fluorescent-tagged peptides were differentiated from non-phosphorylated peptides by separating using Caliper EZ Reader II and the detection was directly converted to conversion ratio.
(§2) For estimation of IC50, the % substrate conversion values are transformed to % Inhibition Ratio by applying the following equation: […]

In the next experiment the target is CSK protein (Homo sapiens (Human), UniProt P41240). Description: CSK Inhibition Assay. In kind it is biochemical. Here is the method:
Test compound was dissolved in DMSO at 10 mM. 45 uL of compound was transferred into a 384-well compound source plate (LABCYTE cat #P-05525) and serially diluted at 1:3 ratio to create a 11-point dilutions. The same volume of DMSO was adopted as high control. 20 nL of these compounds DMSO dilutes were dispensed into a new 384-well assay plate by Echo 550. […] 15 uL of kinase assay buffer containing CSK protein and substrate was transferred to assay plate and incubated at RT for 30 minutes. Kinase assay buffer supplemented with substrate peptides was employed as low control to monitor the background. 4 μM of ATP was prepared in kinase assay buffer and 5 μL of ATP solution was added to each well to start the reaction. The assay plate was incubated at 25° C. for 90 minutes and the reaction was stopped by adding 40 μL of 0.5 M EDTA.
as §1, §2

pIC50: −log10 of the molar value.

Sequence of CSK protein (P41240 whole entry): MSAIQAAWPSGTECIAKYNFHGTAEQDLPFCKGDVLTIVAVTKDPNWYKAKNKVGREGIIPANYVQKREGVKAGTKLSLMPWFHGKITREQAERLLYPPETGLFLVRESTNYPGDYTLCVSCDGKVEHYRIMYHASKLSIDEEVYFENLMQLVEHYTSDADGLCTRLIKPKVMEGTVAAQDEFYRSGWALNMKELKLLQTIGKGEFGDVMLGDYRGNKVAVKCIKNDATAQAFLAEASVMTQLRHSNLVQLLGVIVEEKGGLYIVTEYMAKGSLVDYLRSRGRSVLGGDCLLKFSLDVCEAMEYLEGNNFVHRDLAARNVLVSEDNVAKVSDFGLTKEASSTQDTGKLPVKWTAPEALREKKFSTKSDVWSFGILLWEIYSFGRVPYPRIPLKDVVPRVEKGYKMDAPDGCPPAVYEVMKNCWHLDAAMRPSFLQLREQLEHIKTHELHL

For the compound `Nc1nccc(-c2sc(-c3ccc(C(F)(F)F)cc3)nc2-c2cccc(NS(=O)(=O)c3c(F)cccc3F)c2F)n1` [Compound 4], the results for the pIC50 against LCK protein and on CSK protein were less than 6.00 and 6.48, respectively.

As to `COc1ccc(-c2nc(-c3cccc(NS(=O)(=O)c4c(F)cccc4F)c3F)c(-c3ccnc(N)n3)s2)cc1` [Compound 5], the values for the pIC50 on LCK protein and against CSK protein were less than 6.00 and 7.20, respectively.

Take `COc1cc(N2CCOCC2)ccc1Nc1nccc(-c2sc(-c3ccccc3)nc2-c2cccc(NS(=O)(=O)c3c(F)cccc3F)c2F)n1` [Compound 9]: the negative-log IC50 (pIC50) – broadly, the IC50 on a negative log10 scale, so that one unit is a factor of ten – was less than 6.00 against LCK protein and 7.30 against CSK protein.

In the case of `CCn1cc(-c2nc(-c3cccc(NS(=O)(=O)c4c(F)cccc4F)c3F)c(-c3ccnc(N)n3)s2)cn1` [Compound 10], the pIC50 was 6.00 to 7.00 against LCK protein and 7.52 against CSK protein.

Take `Nc1nccc(-c2sc(-c3cncc(Cl)c3)nc2-c2cccc(NS(=O)(=O)c3c(F)cccc3F)c2F)n1` [Compound 11]: the figures for the negative logarithm of the IC50 (pIC50) at LCK protein and on CSK protein were less than 6.00 and 6.99, respectively.

For `Nc1nccc(-c2sc(-c3ccc(F)cn3)nc2-c2cccc(NS(=O)(=O)c3c(F)cccc3F)c2F)n1` [Compound 12], the pIC50 against LCK protein was less than 6.00; on CSK protein, 7.21.

For `Cc1ccc(-c2nc(-c3cccc(NS(=O)(=O)c4c(F)cccc4F)c3F)c(-c3ccnc(N)n3)s2)nn1` [Compound 13], the figures for the pIC50 against LCK protein and against CSK protein were less than 6.00 and 7.29, respectively.

Regarding `Nc1nccc(-c2sc(-c3ccc(F)cc3)nc2-c2cccc(NS(=O)(=O)c3c(F)cccc3F)c2F)n1` [Compound 14], the results for the negative-log IC50 (pIC50) against LCK protein and against CSK protein were less than 6.00 and 7.26, respectively.

For the compound `Nc1nccc(-c2sc(-c3cccc(F)c3)nc2-c2cccc(NS(=O)(=O)c3c(F)cccc3F)c2F)n1` [Compound 15], the pIC50 was less than 6.00 against LCK protein and 7.29 against CSK protein.

On to `COC(=O)N[C@@H](C)CNc1nccc(-c2sc(-c3ccccc3)nc2-c2cccc(NS(=O)(=O)c3c(F)cccc3F)c2F)n1` [Compound 16], for which the results for the negative-log IC50 (pIC50) against LCK protein and at CSK protein were less than 6.00 and 7.20, respectively.

For `Nc1nccc(-c2sc(-c3cncc(F)c3)nc2-c2cccc(NS(=O)(=O)c3c(F)cccc3F)c2F)n1` [Compound 17], the results for the negative logarithm of the IC50 (pIC50) at LCK protein and against CSK protein were less than 6.00 and 7.60, respectively.

`Nc1nccc(-c2sc(-c3ccccc3)nc2-c2cccc(NS(=O)(=O)c3c(F)cccc3F)c2)n1` [Compound 18]: the negative-log IC50 (pIC50) against LCK protein is less than 6.00; against CSK protein, 6.84.

Consider `COc1cc(NS(=O)(=O)c2c(F)cccc2F)cc(-c2nc(-c3ccccc3)sc2-c2ccnc(N)n2)c1` [Compound 19], for which the negative-log IC50 (pIC50) against LCK protein was 6.00 to 7.00; against CSK protein, 7.55.

Take `COc1cc(NS(=O)(=O)c2c(F)cccc2F)cc(-c2nc(-c3cncc(F)c3)sc2-c2ccnc(N)n2)c1` [Compound 21]: the negative-log IC50 (pIC50) on LCK protein was 6.00 to 7.00.

Consider `Nc1nccc(-c2sc(-c3ccccc3)nc2-c2cccc(NS(=O)(=O)c3ccccc3)c2F)n1` [Compound 24], for which the pIC50 on LCK protein is less than 6.00; on CSK protein it was 6.30.

On to `Nc1nccc(-c2sc(-c3ccccc3)nc2-c2cccc(NS(=O)(=O)c3c(F)cccc3F)n2)n1` [Compound 26], for which, at CSK protein, the pIC50 was less than 5.00.

On to `Nc1nccc(-c2sc(-c3cncnc3)nc2-c2cccc(NS(=O)(=O)c3c(F)cccc3F)c2F)n1` [Compound 29], for which the negative logarithm of the IC50 (pIC50) is less than 6.00 on LCK protein and 7.69 against CSK protein.

`COc1ccc(-c2nc(-c3cccc(NS(=O)(=O)c4c(F)cccc4F)c3F)c(-c3ccnc(N)n3)s2)nc1` [Compound 30]: the negative logarithm of the IC50 (pIC50) against LCK protein was 6.00 to 7.00; against CSK protein it was 7.39.

Compound `O=S(=O)(Nc1cccc(-c2nc(-c3ccc(F)cn3)sc2-c2ccnc(NC3CCCC3)n2)c1F)c1c(F)cccc1F` [Compound 31] had a pIC50 against CSK protein of less than 5.00.

Consider `COc1ccc(Nc2nccc(-c3sc(-c4ccc(F)cn4)nc3-c3cccc(NS(=O)(=O)c4c(F)cccc4F)c3F)n2)cn1` [Compound 32], for which the pIC50 was 6.00 to 7.00 against LCK protein and 8.54 on CSK protein.

For the compound `COc1ccccc1Nc1nccc(-c2sc(-c3ccc(F)cn3)nc2-c2cccc(NS(=O)(=O)c3c(F)cccc3F)c2F)n1` [Compound 33], the pIC50 against LCK protein is less than 6.00; against CSK protein, 6.23.

With `Cc1cc(F)c(S(=O)(=O)Nc2cccc(-c3nc(-c4ccccc4)sc3-c3ccnc(N)n3)c2F)c(F)c1` [Compound 35], the negative logarithm of the IC50 (pIC50) against LCK protein was less than 6.00; at CSK protein, 7.09.

Turning to `Cc1ccnc(-c2nc(-c3cccc(NS(=O)(=O)c4c(F)cccc4F)c3F)c(-c3ccnc(N)n3)s2)c1` [Compound 40], the results for the pIC50 against LCK protein and on CSK protein were less than 6.00 and 7.32, respectively.

As to `CC(=O)N[C@@H](C)CNc1nccc(-c2sc(-c3ccccc3)nc2-c2cccc(NS(=O)(=O)c3c(F)cccc3F)c2F)n1` [Compound 41], the pIC50 on LCK protein was less than 6.00; against CSK protein, 7.06.

Take `O=S(=O)(Nc1cccc(-c2nc(-c3ccccc3)sc2-c2ccnc(Nc3cccnc3)n2)c1F)c1c(F)cccc1F` [Compound 42]: the negative logarithm of the IC50 (pIC50) is 6.00 to 7.00 against LCK protein and 7.42 against CSK protein.

For `Cc1ccc(-c2nc(-c3cccc(NS(=O)(=O)c4c(F)cccc4F)c3F)c(-c3ccnc(N)n3)s2)nc1` [Compound 43], the pIC50 was 6.00 to 7.00 against LCK protein and 7.42 on CSK protein.

As to `C[C@H](Nc1nccc(-c2sc(-c3ccccc3)nc2-c2cccc(NS(=O)(=O)c3c(F)cccc3F)c2F)n1)C(N)=O` [Compound 44], the results for the negative-log IC50 (pIC50) at LCK protein and on CSK protein were less than 6.00 and 7.36, respectively.

In the case of `CNc1nccc(-c2sc(-c3ccccc3)nc2-c2cccc(NS(=O)(=O)c3c(F)cccc3F)c2F)n1` [Compound 46], the pIC50 at LCK protein is less than 6.00; on CSK protein, 7.56.

`Cc1cncc(-c2nc(-c3cccc(NS(=O)(=O)c4c(F)cccc4F)c3F)c(-c3ccnc(N)n3)s2)c1` [Compound 47]: the values for the pIC50 on LCK protein and against CSK protein were 6.00 to 7.00 and 7.53, respectively.

Compound `C[C@@H](Nc1nccc(-c2sc(-c3ccccc3)nc2-c2cccc(NS(=O)(=O)c3c(F)cccc3F)c2F)n1)C(N)=O` [Compound 49] had a pIC50 against CSK protein of 6.46.

Consider `CNc1nccc(-c2sc(-c3ccccc3)nc2-c2cccc(NS(=O)(=O)c3c(F)ccc(C)c3F)c2F)n1` [Compound 51], for which the values for the pIC50 against LCK protein and at CSK protein were less than 6.00 and 7.48, respectively.

With `Cc1ccc(F)c(S(=O)(=O)Nc2cccc(-c3nc(-c4cc(F)ccn4)sc3-c3ccnc(N)n3)c2F)c1F` [Compound 52], the results for the pIC50 against LCK protein and against CSK protein were less than 6.00 and 7.71, respectively.

With `CNc1nccc(-c2sc(-c3cncc(F)c3)nc2-c2cccc(NS(=O)(=O)c3c(F)ccc(C)c3F)c2F)n1` [Compound 53], the pIC50 against LCK protein is less than 6.00; against CSK protein, 7.81.

On to `Cc1ccc(F)c(S(=O)(=O)Nc2cccc(-c3nc(-c4ccc(F)cn4)sc3-c3ccnc(N)n3)c2F)c1F` [Compound 54], for which the negative logarithm of the IC50 (pIC50) against LCK protein is less than 6.00; against CSK protein, 7.03.

Take `CNc1nccc(-c2sc(-c3ccc(F)cn3)nc2-c2cccc(NS(=O)(=O)c3c(F)ccc(C)c3F)c2F)n1` [Compound 55]: the pIC50 on LCK protein is less than 6.00; at CSK protein it was 7.52.

With `Cn1c(-c2ccccc2)nc(-c2ccnc(N)n2)c1-c1cccc(NS(=O)(=O)c2c(F)cccc2F)c1F` [Compound 86], on CSK protein, the pIC50 was 5.91.

At CSK protein, `Cn1c(-c2ccccc2)nc(-c2cccc(NS(=O)(=O)c3c(F)cccc3F)c2F)c1-c1ccnc(N)n1` [Compound 87] gave a pIC50 of 6.02.

`CCn1c(-c2ccccc2)nc(-c2ccnc(N)n2)c1-c1cccc(NS(=O)(=O)c2c(F)cccc2F)c1F` [Compound 89] had a pIC50 against CSK protein of 6.49.

At CSK protein, `COc1ccn2c(-c3ccnc(N)n3)c(-c3cccc(NS(=O)(=O)c4c(F)ccc(C)c4F)c3F)nc2c1` [Compound 99] gave a negative-log IC50 (pIC50) of 6.98.

For `CC(C)(C)c1nc(-c2cccc(NS(=O)(=O)c3c(F)cccc3F)c2F)c(-c2ccnc(N)n2)s1` [Dabrafenib, reference compound], the pIC50 against CSK protein was roughly 7.30. In addition, at CSK protein (CSK inhibition over LCK), the “selectivity over LCK” value is given as “about 10 fold”.

In turn, `Nc1nccc(-c2sc(-c3cccc(N4CCC4)n3)nc2-c2cccc(NS(=O)(=O)c3c(F)cccc3F)c2F)n1` [compound 1] had a pIC50 on CSK protein of 5.98.

The compound `O=S(=O)(Nc1cccc(-c2nc(-c3ccccc3)sc2-c2ccnc(NC3CCNCC3)n2)c1F)c1c(F)cccc1F` [compound 8] showed a pIC50 against CSK protein of less than 5.00.

Consider `CN(C)c1nccc(-c2sc(-c3ccccc3)nc2-c2cccc(NS(=O)(=O)c3c(F)cccc3F)c2F)n1` [compound 37], for which, at CSK protein, the pIC50 is less than 5.00.

Take `Nc1nccc(-c2sc(-c3ccccc3)nc2-c2cccc(NS(=O)(=O)c3ccc4ocnc4c3)c2F)n1` [compound 57]: the pIC50 on CSK protein was 6.60.

Turning to `CCn1c(-c2ccccc2)nc(-c2cccc(NS(=O)(=O)c3c(F)cccc3F)c2F)c1-c1ccnc(N)n1` [compound 88], the pIC50 on CSK protein is less than 5.00.

For the origin of these results see patent publication US12427146B2, “C-terminal SRC kinase inhibitors” (INVENTISBIO CO., LTD., priority 2018, dated 2025).
